Legend:
kochia = experiment: Test D preemergence; format: in vivo, Kochia scoparia; details: Bassia scoparia, pre-emergence
Source text: (§1) Seeds of plant species selected from bluegrass (annual bluegrass, Poa annua), blackgrass (Alopecurus myosuroides), canarygrass (littleseed canarygrass, Phalaris minor), chickweed (common chickweed, Stellaria media), galium (catchweed bedstraw, Galium aparine), bromegrass, downy (downy bromegrass, Bromus tectorum), field poppy (Papaver rhoeas), field violet (Viola arvensis), green foxtail (Setaria viridis), deadnettle (henbit deadnettle, Lamium amplexicaule), Italian ryegrass (Lolium multiflorum), kochia (Kochia scoparia), lambsquarters (Chenopodium album), oilseed rape (Brassica napus), pigweed (Amaranthus retroflexus), chamomile (scentless chamomile, Matricaria inodora), Russian thistle (Salsola kali), speedwell (bird's-eye speedwell, Veronica persica), spring barley (Hordeum vulgare), spring wheat (Triticum aestivum), wild buckwheat (Polygonum convolvulus), wild mustard (Sinapis arvensis), wild oat (Avena fatua), wild radish (Raphanus raphanistrum), windgrass (Apera spica-venti), winter barley (Hordeum vulgare), and winter wheat (Triticum aestivum) were planted into a silt loam soil and treated preemergence with test chemicals formulated in a non-phytotoxic solvent mixture which included a surfactant.
(§2) At the same time, these species were planted in pots containing Redi-Earth® planting medium (Scotts Company, 14111 Scottslawn Road, Marysville, Ohio 43041) comprising spaghnum peat moss, vermiculite, wetting agent and starter nutrients and treated with postemergence applications of the test chemicals formulated in the same manner. Plants ranged in height from 2 to 18 cm (1- to 4-leaf stage). Treated plants and controls were maintained in a controlled growth environment for 7 to 21 days after which time all species were compared to controls and visually evaluated. Plant response ratings, summarized in Table D, are based on a scale of 0 to 100 where 0 is no effect and 100 is complete control. A dash (-) response means no test result.

galium = experiment: Test D preemergence; format: in vivo, Galium aparine; details: Galium, pre-emergence
How it was run: (§3)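 Visual ratings from 0 (no effect) to 100 (complete control) relative to untreated plants were taken 7–21 days after treatment. Chemicals in a surfactant-containing solvent mixture were applied preemergence to seeds in silt loam, or postemergence to plants 2–18 cm tall (1–4 leaves) grown in a peat-based potting medium.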

field poppy = experiment: Test D preemergence; format: in vivo, Papaver rhoeas; details: Papaver rhoeas, pre-emergence, scale 0-100, read-out: Plant response rating, Field Poppy
Source text: as §1, §2

green foxtail = experiment: Test D postemergence; format: in vivo, Setaria viridis; details: Setaria viridis, post-emergence
How it was run: as §3

winter wheat = experiment: Test D postemergence; format: in vivo, Triticum aestivum; details: Triticum aestivum, post-emergence
Source text: as §1, §2

spring wheat = experiment: Test D postemergence; format: in vivo, Triticum aestivum; details: Triticum aestivum, post-emergence
Source text: as §1, §2

wild oat = experiment: Test D preemergence; format: in vivo, Avena fatua; details: Avena fatua, pre-emergence
Source text: as §1, §2

field violet = experiment: Test D preemergence; format: in vivo, Viola arvensis; details: Viola arvensis, pre-emergence
Source text: as §1, §2

chamomile [1] = experiment: Test D preemergence; format: in vivo, Matricaria inodora; details: Tripleurospermum inodorum, pre-emergence
How it was run: as §3

chamomile [2] = experiment: Test D postemergence; format: in vivo, Matricaria inodora; details: Tripleurospermum inodorum, post-emergence
How it was run: as §3

windgrass = experiment: Test D preemergence; format: in vivo, Apera spica-venti; details: Apera spica-venti, pre-emergence
How it was run: as §3

## FC(F)(F)c1cnn(-c2ccccc2Oc2ncc(Br)cn2)c1 [Compound 18, 5-bromo-2-[2-[4-(trifluoromethyl)-1H-pyrazol-1-yl]phenoxy]pyrimidine]
kochia; 16 g ai/ha, scale 0 (no effect) to 100 (complete control), read-out: Plant response rating, Kochia
  pest or weed control at 16 g/ha: 15%
kochia; 31 g ai/ha, scale 0-100, read-out: Plant response rating, Kochia
  pest or weed control at 31 g/ha: 90%
kochia; 62 g ai/ha, scale 0-100, read-out: Plant response rating, Kochia
  pest or weed control at 62 g/ha: 75%
kochia; 125 g ai/ha, scale 0-100, read-out: Plant response rating, Kochia
  pest or weed control at 125 g/ha: 100%
kochia; 250 g ai/ha, scale 0-100, read-out: Plant response rating, Kochia
  pest or weed control at 250 g/ha: 100%
galium; 16 g ai/ha, scale 0 (no effect) to 100 (complete control), read-out: Plant response rating, Galium
  pest or weed control at 16 g/ha: 0%
galium; 31 g ai/ha, scale 0-100, read-out: Plant response rating, Galium
  pest or weed control at 31 g/ha: 15%
galium; 62 g ai/ha, scale 0-100, read-out: Plant response rating, Galium
  pest or weed control at 62 g/ha: 80%
galium; 125 g ai/ha, scale 0-100, read-out: Plant response rating, Galium
  pest or weed control at 125 g/ha: 100%
galium; 250 g ai/ha, scale 0-100, read-out: Plant response rating, Galium
  pest or weed control at 250 g/ha: 100%
Field poppy; 31 g ai/ha
  pest or weed control at 31 g/ha: 70%
Field poppy; 62 g ai/ha
  pest or weed control at 62 g/ha: 85%
Field poppy; 125 g ai/ha
  pest or weed control at 125 g/ha: 95%
Field poppy; 250 g ai/ha
  pest or weed control at 250 g/ha: 100%
Green foxtail; 16 g ai/ha, scale 0-100, read-out: Plant response rating, Foxtail, Green
  pest or weed control at 16 g/ha: 10%
Green foxtail; 31 g ai/ha, scale 0 to 100 (0 no effect, 100 complete control), read-out: Plant response rating, Foxtail, Green
  pest or weed control at 31 g/ha: 10%
Green foxtail; 62 g ai/ha, scale 0 to 100 (0 no effect, 100 complete control), read-out: Plant response rating, Foxtail, Green
  pest or weed control at 62 g/ha: 15%
Green foxtail; 125 g ai/ha, scale 0 to 100 (0 no effect, 100 complete control), read-out: Plant response rating, Foxtail, Green
  pest or weed control at 125 g/ha: 20%
Green foxtail; 250 g ai/ha, scale 0 to 100 (0 no effect, 100 complete control), read-out: Plant response rating, Foxtail, Green
  pest or weed control at 250 g/ha: 25%
Winter wheat; 16 g ai/ha, scale 0-100, read-out: Plant response rating, Wheat, Winter
  plant injury at 16 g/ha: 5%
Winter wheat; 31 g ai/ha, scale 0 to 100 (0 no effect, 100 complete control), read-out: Plant response rating, Wheat, Winter
  plant injury at 31 g/ha: 5%
Winter wheat; 62 g ai/ha, scale 0 to 100 (0 no effect, 100 complete control), read-out: Plant response rating, Wheat, Winter
  plant injury at 62 g/ha: 10%
Winter wheat; 125 g ai/ha, scale 0 to 100 (0 no effect, 100 complete control), read-out: Plant response rating, Wheat, Winter
  plant injury at 125 g/ha: 15%
Winter wheat; 250 g ai/ha, scale 0 to 100 (0 no effect, 100 complete control), read-out: Plant response rating, Wheat, Winter
  plant injury at 250 g/ha: 20%
Spring wheat; 16 g ai/ha, scale 0-100, read-out: Plant response rating, Wheat, Spring
  plant injury at 16 g/ha: 10%
Spring wheat; 31 g ai/ha, scale 0 to 100 (0 no effect, 100 complete control), read-out: Plant response rating, Wheat, Spring
  plant injury at 31 g/ha: 10%
Spring wheat; 62 g ai/ha, scale 0 to 100 (0 no effect, 100 complete control), read-out: Plant response rating, Wheat, Spring
  plant injury at 62 g/ha: 15%
Spring wheat; 125 g ai/ha, scale 0 to 100 (0 no effect, 100 complete control), read-out: Plant response rating, Wheat, Spring
  plant injury at 125 g/ha: 20%
Spring wheat; 250 g ai/ha, scale 0 to 100 (0 no effect, 100 complete control), read-out: Plant response rating, Wheat, Spring
  plant injury at 250 g/ha: 25%
Wild oat; 16 g ai/ha, scale 0 (no effect) to 100 (complete control), read-out: Plant response rating, Oat, Wild
  pest or weed control at 16 g/ha: 0%
Wild oat; 31 g ai/ha, scale 0-100, read-out: Plant response rating, Oat, Wild
  pest or weed control at 31 g/ha: 0%
Wild oat; 62 g ai/ha, scale 0-100, read-out: Plant response rating, Oat, Wild
  pest or weed control at 62 g/ha: 0%
Wild oat; 125 g ai/ha, scale 0-100, read-out: Plant response rating, Oat, Wild
  pest or weed control at 125 g/ha: 5%
Wild oat; 250 g ai/ha, scale 0-100, read-out: Plant response rating, Oat, Wild
  pest or weed control at 250 g/ha: 30%
Field violet; 16 g ai/ha, scale 0 (no effect) to 100 (complete control), read-out: Plant response rating, Field Violet
  pest or weed control at 16 g/ha: 65%
Field violet; 31 g ai/ha, scale 0-100, read-out: Plant response rating, Field Violet
  pest or weed control at 31 g/ha: 70%
Field violet; 62 g ai/ha, scale 0-100, read-out: Plant response rating, Field Violet
  pest or weed control at 62 g/ha: 85%
Field violet; 125 g ai/ha, scale 0-100, read-out: Plant response rating, Field Violet
  pest or weed control at 125 g/ha: 85%
Field violet; 250 g ai/ha, scale 0-100, read-out: Plant response rating, Field Violet
  pest or weed control at 250 g/ha: 90%
Chamomile [1]; 16 g ai/ha, scale 0 (no effect) to 100 (complete control), read-out: Plant response rating, Chamomile
  pest or weed control at 16 g/ha: 5%
Chamomile [1]; 31 g ai/ha, scale 0-100, read-out: Plant response rating, Chamomile
  pest or weed control at 31 g/ha: 5%
Chamomile [1]; 125 g ai/ha, scale 0-100, read-out: Plant response rating, Chamomile
  pest or weed control at 125 g/ha: 50%
Chamomile [1]; 250 g ai/ha, scale 0-100, read-out: Plant response rating, Chamomile
  pest or weed control at 250 g/ha: 55%
Chamomile [2]; 16 g ai/ha, scale 0-100, read-out: Plant response rating, Chamomile
  pest or weed control at 16 g/ha: 5%
Chamomile [2]; 31 g ai/ha, scale 0 to 100 (0 no effect, 100 complete control), read-out: Plant response rating, Chamomile
  pest or weed control at 31 g/ha: 10%
Chamomile [2]; 62 g ai/ha, scale 0 to 100 (0 no effect, 100 complete control), read-out: Plant response rating, Chamomile
  pest or weed control at 62 g/ha: 5%
Chamomile [2]; 125 g ai/ha, scale 0 to 100 (0 no effect, 100 complete control), read-out: Plant response rating, Chamomile
  pest or weed control at 125 g/ha: 10%
Chamomile [2]; 250 g ai/ha, scale 0 to 100 (0 no effect, 100 complete control), read-out: Plant response rating, Chamomile
  pest or weed control at 250 g/ha: 10%
windgrass; 16 g ai/ha, scale 0 (no effect) to 100 (complete control), read-out: Plant response rating, Windgrass
  pest or weed control at 16 g/ha: 5%
windgrass; 31 g ai/ha, scale 0 (no effect) to 100 (complete control), read-out: Plant response rating, Windgrass
  pest or weed control at 31 g/ha: 20%
windgrass; 62 g ai/ha, scale 0-100, read-out: Plant response rating, Windgrass
  pest or weed control at 62 g/ha: 75%
windgrass; 125 g ai/ha, scale 0-100, read-out: Plant response rating, Windgrass
  pest or weed control at 125 g/ha: 100%
windgrass; 250 g ai/ha, scale 0-100, read-out: Plant response rating, Windgrass
  pest or weed control at 250 g/ha: 100%

From patent publication US9695155B2, “Herbicidal substituted pyrimidinyloxy benzene compounds” (E. I. DU PONT DE NEMOURS AND COMPANY, priority 2013, dated 2017)
